Measured values as given in patent US9650399B2, “Salicylic acid derivatives, pharmaceutically acceptable salt thereof, composition thereof and method of use thereof” (The Governing Council of the University of Toronto, priority 2012, dated 2017).
Where two headings read alike, the source gives them in different places.

Legend:
His-tagged STAT5 = test: surface plasmon resonance (SPR) binding, STAT5; parameters: species or system human; details: SPR control experiment
Description: Interactions of His-tagged STAT3 with small molecules were investigated using SPR spectroscopy. The binding experiments were carried out on a ProteOn XPR36 (Bio-Rad) biosensor at 25° C. using the HTE sensor chip (Bio-Rad, Ontario, Canada). The flow cells of the sensor chip were loaded with a nickel solution at 30 μL/min for 120 s to saturate the Tris NTA surface with Ni(II) ions. Purified His-tagged STAT3 and STAT5 (SignalChem, British Columbia, Canada) in PBST buffer (PBS with 0.005% (v/v) Tween-20 and 0.001% DMSO pH 7.4) was injected in the first and second channels of the chip respectively in the vertical direction at a flow rate of […] for 300 s, which attained, on average, 8000 resonance unit (RU). After a wash with PBST buffer, inhibitors binding to the immobilized proteins were monitored by injecting a range of concentrations along with a blank at a flow rate of 100 μL/min for 200 s for each of these small molecules. When the injection of the small molecule inhibitor was completed, running buffer was allowed to flow over the immobilized substrates for the non-specifically bound inhibitors to dissociate for 600 s. Following dissociation of the inhibitors, the chip surface was regenerated with an injection of 1 M NaCl at a flow rate of […] for 18 s. […] Data were analyzed using ProteOn Manager Software version 3.1. […]

BTSC73M = test: alamarBlue cell viability, BTSC 73M; format: cell-based, human
In short: (§1)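 Patient-derived GBM brain tumour stem cells, dissociated spheres seeded at 1500 cells/96-well, or 3000 cells/96-well in one setup. Drug or DMSO vehicle added one day after plating. Viability read by alamarBlue after 72 hrs, triplicate wells.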

STAT3 SH2 domain = STAT3 SH2 domain (Homo sapiens, UniProt P40763); test: fluorescence polarization (FP) assay, STAT3; details: 5-FAM-GpYLPQTV-NH2 probe
Chain of STAT3 SH2 domain (P40763 whole entry, the tested form may be a part): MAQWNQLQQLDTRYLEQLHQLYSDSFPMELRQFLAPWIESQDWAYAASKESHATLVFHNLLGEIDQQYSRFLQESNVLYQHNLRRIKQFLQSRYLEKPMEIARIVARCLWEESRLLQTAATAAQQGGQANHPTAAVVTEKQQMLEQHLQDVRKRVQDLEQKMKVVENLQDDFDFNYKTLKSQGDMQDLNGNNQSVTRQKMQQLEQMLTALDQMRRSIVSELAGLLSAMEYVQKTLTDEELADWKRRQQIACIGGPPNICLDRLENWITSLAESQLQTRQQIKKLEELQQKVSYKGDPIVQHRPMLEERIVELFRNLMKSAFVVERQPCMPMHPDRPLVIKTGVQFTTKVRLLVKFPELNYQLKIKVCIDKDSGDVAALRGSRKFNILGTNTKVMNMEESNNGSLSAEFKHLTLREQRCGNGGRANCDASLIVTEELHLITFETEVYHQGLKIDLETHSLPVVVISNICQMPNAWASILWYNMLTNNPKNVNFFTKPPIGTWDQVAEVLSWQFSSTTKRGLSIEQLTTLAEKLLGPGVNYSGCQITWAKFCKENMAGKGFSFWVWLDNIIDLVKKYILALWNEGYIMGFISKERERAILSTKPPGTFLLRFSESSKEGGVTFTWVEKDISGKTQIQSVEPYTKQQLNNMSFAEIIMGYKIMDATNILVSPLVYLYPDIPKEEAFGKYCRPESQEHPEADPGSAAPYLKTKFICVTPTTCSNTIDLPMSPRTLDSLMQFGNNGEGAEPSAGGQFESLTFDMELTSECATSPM
Description: The buffer used contained 50 mM NaCl, 10 mM Hepes, pH 7.5, 1 mM EDTA and 2 mM dithiothreitol and a final concentration of 5% DMSO.
Test compounds were dissolved in DMSO and diluted using a dilution medium consisting of 50 mM NaCl, 10 mM Hepes, pH 7.5, 1 mM EDTA, and 2 mM dithiothreitol. Fluorescently-labelled pYLPQTV peptide (FAM-pYLPQTV) was kept at a final concentration of 10 nM in the buffered solution.
The midpoint of the saturation curve was used to determine the STAT3 concentration required for the competitive fluorescent polarization assay. […] 7.5 μL of inhibitory molecules (and positive control) solution were individually added to the plate. The final inhibitory concentrations were 100 μL, 50 μL, 25A, 12.5 μL, 6.3 μL, or 3.1 μL. The 10% DMSO buffer solution was incubated for 15-30 minutes before signal measurements by the Infinite M1000.

BTSC30M = test: alamarBlue cell viability, BTSC 30M; format: cell-based, human
In short: as §1

BTSC68EF = test: alamarBlue cell viability, BTSC 68EF; format: cell-based, human; details: Table 4 library screen, alamarBlue
In short: as §1

147EF = test: alamarBlue cell viability, BTSC 147EF; format: cell-based, human; details: Homo sapiens, Table 4 library screen
Description: BTSC spheres were dissociated to single cells with the enzyme Accumax (Innovative Technologies), seeded at 1500 cells/96-well and treated with drug or vehicle (DMSO) one day after plating. Cytotoxicity studies were repeated independently at Sickkids Hospital using BTSC lines 25M, 67EF, 73EF, 84EF and 127EF. BTSC spheres were dissociated to single cells as above and plated in 96 well plates in triplicate at 3000 cells/96-well. In both sets of experiments drugs were used as serial dilutions within the range of 5 μM to 100 nM in the first set and 25 μM to 10 nM. Cell viability following drug treatment was assessed three days later using the ALAMARBLUE™ assay (Invitrogen) according to the manufacturer's instructions. All culture experiments were performed in triplicate with a minimum of three wells per condition. Table 4 below illustrates a screen of the library against a number of BTSCs using ALAMARBLUE™ assay.

BTSCs = test: alamarBlue cytotoxicity across BTSC lines; format: cell-based, human; details: Homo sapiens
Description: First, the library was screened for biological activity against a set of three representative GBM BTSCs derived from GBM patients, including the very aggressive GBM BTSC lines, BTSC73M, BTSC30M, BTSC68EF. Dissociated BTSC spheres were seeded at 1500 cells/96-well and treated with drug compound or vehicle (DMSO) one day after plating. Cell viability following drug treatment was assessed after 72 hrs using the ALAMARBLUE™ assay (Invitrogen) according to the manufacturer's instructions. All culture experiments were performed in triplicate with a minimum of three wells per condition.
BTSC spheres were dissociated to single cells with the enzyme Accumax (Innovative Technologies), seeded at 1500 cells/96-well and treated with drug or vehicle (DMSO) one day after plating. […] BTSC spheres were dissociated to single cells as above and plated in 96 well plates in triplicate at 3000 cells/96-well. […] Cell viability following drug treatment was assessed three days later using the ALAMARBLUE™ assay (Invitrogen) according to the manufacturer's instructions. All culture experiments were performed in triplicate with a minimum of three wells per condition.

[1] = test system: normal human fetal astrocytes (HF 2003, HF 2006, HF 2009, HF 2013); test: toxicity in normal human fetal astrocytes; format: cell-based; details: concentrations of up to 5 μM
Description: Given the nM cytoxicity, these compounds were assayed for biological effects in healthy cells.
GBM BTSCs were cultured from a series of tumor specimens obtained following informed consent from adult GBM patients during their operative procedure as previously described (Kelly et al, Stem Cells 2009) and approved by the University of Calgary Ethics Review Board. Briefly, BTSC cultures were initiated in serum-free defined culture medium (SFM) and gave rise to nonadherent spheres after 7 to 21 days in culture. Primary tumor spheres were expanded for several passages and then cryopreserved in 10% DMSO (Sigma Aldrich) in serum-free defined medium until use in experiments. Human fetal neural stem cells were also cultured as previously described and induced to differentiate into astrocytes by addition of 10% fetal bovine serum and removal of EGF, FGF-2 and heparan sulfate.

pSTAT3 (Y705) = test: Western blot of phosphorylated STAT3 in BTSCs; format: cell-based, human; details: Western blot
Description: Blots were stained with antibodies: phospho-Y705, phospho-S727, Bcl-xL, cyclin D1, PARP and Actin. Bands were visualized with the ECL PLUS™ Western Blotting Detection System and […]™ (Amersham). […] BTSC spheres were lysed in modified RIPA buffer supplemented with Complete Mini protease (Roche) and Halt phosphatase (Thermo Scientific) inhibitor cocktails. […] Blots were stained with the following antibodies: phospho-STAT3 Y705 (1:1000, Cell Signalling Technology), phospho-STAT3 S727 (1:1000, Cell Signalling Technology), STAT3 (1:1000, Santa Cruz Biotechnology), Bcl-xL (1:1000, Cell Signalling Technology), cyclin D1 (1:1000, Cell Signalling Technology) PARP (1:1000, Cell Signalling Technology) and Actin (1:2500, Santa Cruz Biotechnology). HRP conjugated secondary antibodies, goat anti-rabbit (Cell Signalling Technology) were used at 1:2000 and donkey anti-mouse, donkey anti-goat, and goat anti-rabbit, (Calbiochem) were used at 1:6000. Bands were visualized with the ECL Plus Western Blotting Detection System and Hyperfilm (Amersham).

[2] = cited from earlier work
[3] = Table 4 library screen, alamarBlue

## CC(C)C[C@H](NC(=O)[C@@H](N)Cc1ccc(OP(=O)(O)O)cc1)C(=O)N1CCC[C@H]1C(=O)N[C@@H](CCC(N)=O)C(=O)N[C@H](C(=O)N[C@H](C(N)=O)C(C)C)[C@@H](C)O [STAT3 peptide sequence]
His-tagged STAT5
  KD (STAT5): No binding

## CN(CC(=O)N(Cc1ccc(C2CCCCC2)cc1)c1ccccc1)S(=O)(=O)c1c(F)c(F)c(F)c(F)c1F [Compound 36, N-(4-cyclohexylbenzyl)-2-(2,3,4,5,6-pentafluoro-N-methylphenylsulfonamido)-N-phenylacetamide]
BTSC73M; [3]
  73M IC50 (μM): no effect
STAT3 SH2 domain
  disruption of STAT3:phosphopeptide interaction / binding activity (in words): no disruption of the STAT3:phosphopeptide interaction

## CC(=O)Oc1cc(N(Cc2ccc(C3CCCCC3)cc2)C(=O)CN(C)S(=O)(=O)c2c(F)c(F)c(F)c(F)c2F)ccc1C(=O)O [Compound 22, 2-acetoxy-4-(N-(4-cyclohexylbenzyl)-2-(2,3,4,5,6-pentafluoro-N-methylphenylsulfonamido)acetamido)benzoic acid]
BTSC30M; Homo sapiens, read-out: 30M IC50 (μM), Table 4 library screen, alamarBlue
  IC50: 0.526 µM
BTSC30M; Homo sapiens, read-out: IC50 (nM) in BTSC 30M
  IC50: 0.526 ± 0.013 µM
BTSC68EF; Homo sapiens, read-out: 68EF IC50
  IC50: 891 nM
BTSC73M; Homo sapiens, Table 4 library screen, alamarBlue, read-out: 73M IC50
  IC50: 1.45 µM
147EF
  IC50: 776 nM
BTSCs; collective range over 8 BTSC lines, read-out: EC50s across all 8 BTSCs evaluated
  EC50: 66 to 1140 nM
BTSCs; collective range, units given in the value, read-out: IC50 values of the top four ranked compounds against BTSCs
  IC50: 100 to 3800 nM
[1]
  toxicity in normal human cells: minimal toxicity
pSTAT3 (Y705); 0, 0.1, 0.5, 1.0 and 5.0 μM
  pSTAT3 inhibition potency: nM inhibition of pSTAT3
pSTAT3 (Y705); 1 μM, BTSCs
  suppression of pSTAT3 (Y705): most suppression of pSTAT3 (Y705)

## CN(CC(=O)N(Cc1ccc(C2CCCCC2)cc1)c1ccc(C(=O)OCOC(=O)C(C)(C)C)cc1)S(=O)(=O)c1c(F)c(F)c(F)c(F)c1F [Compound 27, (pivaloyloxy)methyl 4-(N-(4-cyclohexylbenzyl)-2-(2,3,4,5,6-pentafluoro-N-methylphenylsulfonamido)acetamido)benzoate]
BTSC30M; [3]
  30M IC50 (μM): no effect
BTSC68EF
  68EF IC50 (μM): no effect
STAT3 SH2 domain
  disruption of STAT3:phosphopeptide interaction / binding activity (in words): most potent inhibitor of STAT3

## Cucurbitacin [Cucurbitacin 1, reference compound]
BTSC30M; read-out: EC50 v.s. 30M, BTSC 30M
  EC50: 630 nM
BTSC30M; read-out: IC50 (μM) 30M, Table 2, BTSC 30M, alamarBlue, 72 hrs
  IC50: 0.63 ± 0.08 µM
BTSC73M; BTSC 73M, read-out: EC50 v.s. 73M
  EC50: 700 nM
BTSC73M; Table 2, BTSC 73M, alamarBlue, 72 hrs, read-out: IC50 (μM) 73M
  IC50: 0.7 ± 0.06 µM
[2]
  BBB permeability: poor BBB permeability
